Test results from US8883763B2 (Universite Joseph Fourier, priority 2010, dated 2014).

Tested on: HeLa cells
Experiment: Comparative tests with INH2BP: antiproliferative activity
Type: cell-based, human
Conditions: 50 μM
Protocol: The cells were seeded in 96-well plates (1,000 per well) and incubated with different concentrations of compound 6 (1 nM to 100 μM), for 5 days (120 hours). At the end of this incubation, Hoechst 33342 (1 μg/ml) was added to the culture medium and the live cells were counted under a fluorescence microscope (Zeiss Axiovert 200M). The data represents the average of two independent experiments during which 10 fields chosen at random were analyzed for each concentration of compound 6, themselves produced in triplicate.

Nc1ccc2oc(=O)ccc2c1I [INH2BP, 5-iodo-6-amino-1,2-benzopyrone]
antiproliferative activity on HeLa cells: no antiproliferative activity
